Results: ChEMBL document CHEMBL4507268 (2021)

Assays:
Conditions in all cases: Compound concentration 1.0 uM
[1] = molecular target: G protein-coupled receptor kinase 5 (Homo sapiens) (UniProt P34947)
[2] = molecular target: Protein kinase C eta type (Homo sapiens) (UniProt P24723)
[3] = molecular target: Tyrosine-protein kinase HCK (Homo sapiens) (UniProt P08631)
[4] = molecular target: T1, Serine/threonine-protein kinase ULK3 (Homo sapiens) (UniProt Q6PHR2)
T1 sequence (whole entry): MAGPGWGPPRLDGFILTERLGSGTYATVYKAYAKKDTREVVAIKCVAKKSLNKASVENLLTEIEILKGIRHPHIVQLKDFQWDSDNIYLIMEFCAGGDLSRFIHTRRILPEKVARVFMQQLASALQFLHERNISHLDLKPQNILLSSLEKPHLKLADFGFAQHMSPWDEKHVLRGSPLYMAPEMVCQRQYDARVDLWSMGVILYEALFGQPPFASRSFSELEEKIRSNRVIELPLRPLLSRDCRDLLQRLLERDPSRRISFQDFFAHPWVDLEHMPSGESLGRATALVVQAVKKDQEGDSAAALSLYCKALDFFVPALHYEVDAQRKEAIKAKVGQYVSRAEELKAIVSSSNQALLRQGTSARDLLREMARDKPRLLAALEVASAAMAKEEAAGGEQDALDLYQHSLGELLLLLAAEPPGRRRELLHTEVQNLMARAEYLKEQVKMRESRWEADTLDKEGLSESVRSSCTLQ

[5] = molecular target: Testis-specific serine/threonine-protein kinase 2 (Homo sapiens) (UniProt Q96PF2)
[6] = molecular target: Tyrosine-protein kinase Fyn (Homo sapiens) (UniProt P06241)
[7] = molecular target: T2, Mitogen-activated protein kinase kinase kinase 7 (Homo sapiens) (UniProt O43318)
T2 sequence (whole entry): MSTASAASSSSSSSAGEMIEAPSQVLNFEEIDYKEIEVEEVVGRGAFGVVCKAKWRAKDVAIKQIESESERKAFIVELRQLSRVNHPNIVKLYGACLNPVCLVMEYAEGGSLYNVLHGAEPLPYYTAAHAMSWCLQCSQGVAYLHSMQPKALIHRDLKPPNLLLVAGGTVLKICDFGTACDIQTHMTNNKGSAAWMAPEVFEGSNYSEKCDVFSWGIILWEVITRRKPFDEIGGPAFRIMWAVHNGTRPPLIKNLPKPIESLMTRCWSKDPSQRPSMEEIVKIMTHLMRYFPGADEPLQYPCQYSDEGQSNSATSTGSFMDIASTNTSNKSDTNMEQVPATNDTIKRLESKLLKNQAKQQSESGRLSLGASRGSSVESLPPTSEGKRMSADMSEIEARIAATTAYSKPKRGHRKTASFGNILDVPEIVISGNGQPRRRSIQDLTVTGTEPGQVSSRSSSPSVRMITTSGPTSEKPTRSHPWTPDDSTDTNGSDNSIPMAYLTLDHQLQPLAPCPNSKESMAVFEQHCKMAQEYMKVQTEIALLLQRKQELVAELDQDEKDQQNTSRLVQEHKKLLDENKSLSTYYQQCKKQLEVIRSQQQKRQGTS

[8] = molecular target: T3, Serine/threonine-protein kinase 17B (Homo sapiens) (UniProt O94768)
T3 sequence (whole entry): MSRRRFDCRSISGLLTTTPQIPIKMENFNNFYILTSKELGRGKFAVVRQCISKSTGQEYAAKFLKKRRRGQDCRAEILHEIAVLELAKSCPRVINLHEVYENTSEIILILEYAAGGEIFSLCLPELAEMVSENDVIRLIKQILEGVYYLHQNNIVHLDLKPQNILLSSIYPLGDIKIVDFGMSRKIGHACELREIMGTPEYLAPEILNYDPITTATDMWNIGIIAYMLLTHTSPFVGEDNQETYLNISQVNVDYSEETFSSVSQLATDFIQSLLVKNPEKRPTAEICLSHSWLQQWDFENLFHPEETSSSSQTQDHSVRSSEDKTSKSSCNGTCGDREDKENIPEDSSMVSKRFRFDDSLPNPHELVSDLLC

[9] = molecular target: Mitogen-activated protein kinase kinase kinase 10 (Homo sapiens) (UniProt Q02779)
[10] = molecular target: Tau-tubulin kinase 1 (Homo sapiens) (UniProt Q5TCY1)
[11] = molecular target: Cyclin-dependent kinase 5/CDK5 activator 1 (Homo sapiens) (UniProt Q00535+Q15078)
[12] = molecular target: Ribosomal protein S6 kinase beta-1 (Homo sapiens) (UniProt P23443)
[13] = molecular target: T4, Serine/threonine-protein kinase BRSK2 (Homo sapiens) (UniProt Q8IWQ3)
T4 sequence (whole entry): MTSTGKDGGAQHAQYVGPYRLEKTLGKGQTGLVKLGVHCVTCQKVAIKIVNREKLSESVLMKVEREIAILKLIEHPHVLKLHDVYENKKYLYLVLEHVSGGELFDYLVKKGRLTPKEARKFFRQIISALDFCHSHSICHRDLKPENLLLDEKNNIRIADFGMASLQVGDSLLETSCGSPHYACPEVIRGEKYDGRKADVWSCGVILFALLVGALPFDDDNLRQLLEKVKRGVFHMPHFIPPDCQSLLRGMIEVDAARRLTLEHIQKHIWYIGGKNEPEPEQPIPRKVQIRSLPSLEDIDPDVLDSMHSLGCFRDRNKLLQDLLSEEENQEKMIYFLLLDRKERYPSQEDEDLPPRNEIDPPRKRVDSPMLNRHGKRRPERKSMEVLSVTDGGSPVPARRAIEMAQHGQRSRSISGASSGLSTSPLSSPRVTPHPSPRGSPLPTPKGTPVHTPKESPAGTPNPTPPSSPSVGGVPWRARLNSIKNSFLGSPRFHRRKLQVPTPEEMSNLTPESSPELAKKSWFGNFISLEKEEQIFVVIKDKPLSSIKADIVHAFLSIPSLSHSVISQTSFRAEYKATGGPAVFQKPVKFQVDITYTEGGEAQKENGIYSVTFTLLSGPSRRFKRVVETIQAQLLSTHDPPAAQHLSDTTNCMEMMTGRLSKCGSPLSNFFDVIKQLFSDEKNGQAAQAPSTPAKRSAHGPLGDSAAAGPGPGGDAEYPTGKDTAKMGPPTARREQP

[14] = molecular target: Serine/threonine-protein kinase MARK2 (Homo sapiens) (UniProt Q7KZI7)
[15] = molecular target: Serine/threonine-protein kinase Nek4 (Homo sapiens) (UniProt P51957)
[16] = molecular target: BDNF/NT-3 growth factors receptor (Homo sapiens) (UniProt Q16620)

Measured: % residual kinase activity

Chain of Protein kinase C eta type (Homo sapiens) (P24723 whole entry): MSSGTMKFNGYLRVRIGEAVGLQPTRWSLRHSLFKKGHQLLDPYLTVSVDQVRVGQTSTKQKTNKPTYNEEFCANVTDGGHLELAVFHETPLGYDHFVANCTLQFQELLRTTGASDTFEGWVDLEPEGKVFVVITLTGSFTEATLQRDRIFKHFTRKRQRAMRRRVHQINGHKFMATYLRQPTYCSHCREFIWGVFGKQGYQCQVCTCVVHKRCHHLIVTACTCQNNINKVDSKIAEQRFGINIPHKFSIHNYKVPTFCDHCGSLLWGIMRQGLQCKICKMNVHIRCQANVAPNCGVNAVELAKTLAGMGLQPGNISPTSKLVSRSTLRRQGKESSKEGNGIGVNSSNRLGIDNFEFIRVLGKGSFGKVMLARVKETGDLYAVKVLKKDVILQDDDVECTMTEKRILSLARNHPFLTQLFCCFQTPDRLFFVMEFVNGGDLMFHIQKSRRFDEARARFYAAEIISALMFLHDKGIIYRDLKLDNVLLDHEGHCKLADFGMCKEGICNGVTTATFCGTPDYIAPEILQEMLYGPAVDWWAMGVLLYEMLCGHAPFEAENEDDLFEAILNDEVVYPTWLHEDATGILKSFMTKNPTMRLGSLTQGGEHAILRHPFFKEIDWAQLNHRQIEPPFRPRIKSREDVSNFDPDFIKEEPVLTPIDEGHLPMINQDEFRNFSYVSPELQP
Chain of G protein-coupled receptor kinase 5 (Homo sapiens) (P34947 whole entry, looked up): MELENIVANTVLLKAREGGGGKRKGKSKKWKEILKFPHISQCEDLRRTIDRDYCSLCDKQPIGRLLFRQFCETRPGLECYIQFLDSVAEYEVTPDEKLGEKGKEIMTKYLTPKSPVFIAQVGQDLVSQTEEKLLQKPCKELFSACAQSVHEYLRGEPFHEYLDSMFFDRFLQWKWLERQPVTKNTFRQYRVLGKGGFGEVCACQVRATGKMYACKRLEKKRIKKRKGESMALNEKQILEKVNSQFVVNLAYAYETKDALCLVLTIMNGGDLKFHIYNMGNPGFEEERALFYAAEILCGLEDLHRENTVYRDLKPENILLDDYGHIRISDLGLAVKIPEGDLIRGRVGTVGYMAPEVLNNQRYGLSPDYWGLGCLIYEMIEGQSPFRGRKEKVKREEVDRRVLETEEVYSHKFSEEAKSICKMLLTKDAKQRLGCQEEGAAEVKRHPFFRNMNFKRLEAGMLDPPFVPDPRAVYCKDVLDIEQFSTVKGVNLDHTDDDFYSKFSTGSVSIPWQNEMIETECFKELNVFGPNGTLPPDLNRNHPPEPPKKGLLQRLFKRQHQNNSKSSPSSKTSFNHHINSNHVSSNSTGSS
Chain of Ribosomal protein S6 kinase beta-1 (Homo sapiens) (P23443 whole entry, looked up): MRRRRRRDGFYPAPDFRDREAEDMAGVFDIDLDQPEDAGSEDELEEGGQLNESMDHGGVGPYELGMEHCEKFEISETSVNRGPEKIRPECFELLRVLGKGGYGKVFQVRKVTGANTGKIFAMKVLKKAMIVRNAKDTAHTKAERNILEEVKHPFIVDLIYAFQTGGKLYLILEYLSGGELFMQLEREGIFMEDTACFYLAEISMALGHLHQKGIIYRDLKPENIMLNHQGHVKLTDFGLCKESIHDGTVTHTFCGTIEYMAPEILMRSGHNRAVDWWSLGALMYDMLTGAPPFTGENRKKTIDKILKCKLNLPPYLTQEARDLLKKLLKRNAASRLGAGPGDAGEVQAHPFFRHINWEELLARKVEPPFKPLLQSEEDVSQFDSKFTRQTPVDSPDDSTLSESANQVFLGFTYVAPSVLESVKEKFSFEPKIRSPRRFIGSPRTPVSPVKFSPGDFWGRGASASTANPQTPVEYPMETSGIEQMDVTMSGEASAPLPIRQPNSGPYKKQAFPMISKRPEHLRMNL
Chain of Serine/threonine-protein kinase Nek4 (Homo sapiens) (P51957 whole entry, looked up): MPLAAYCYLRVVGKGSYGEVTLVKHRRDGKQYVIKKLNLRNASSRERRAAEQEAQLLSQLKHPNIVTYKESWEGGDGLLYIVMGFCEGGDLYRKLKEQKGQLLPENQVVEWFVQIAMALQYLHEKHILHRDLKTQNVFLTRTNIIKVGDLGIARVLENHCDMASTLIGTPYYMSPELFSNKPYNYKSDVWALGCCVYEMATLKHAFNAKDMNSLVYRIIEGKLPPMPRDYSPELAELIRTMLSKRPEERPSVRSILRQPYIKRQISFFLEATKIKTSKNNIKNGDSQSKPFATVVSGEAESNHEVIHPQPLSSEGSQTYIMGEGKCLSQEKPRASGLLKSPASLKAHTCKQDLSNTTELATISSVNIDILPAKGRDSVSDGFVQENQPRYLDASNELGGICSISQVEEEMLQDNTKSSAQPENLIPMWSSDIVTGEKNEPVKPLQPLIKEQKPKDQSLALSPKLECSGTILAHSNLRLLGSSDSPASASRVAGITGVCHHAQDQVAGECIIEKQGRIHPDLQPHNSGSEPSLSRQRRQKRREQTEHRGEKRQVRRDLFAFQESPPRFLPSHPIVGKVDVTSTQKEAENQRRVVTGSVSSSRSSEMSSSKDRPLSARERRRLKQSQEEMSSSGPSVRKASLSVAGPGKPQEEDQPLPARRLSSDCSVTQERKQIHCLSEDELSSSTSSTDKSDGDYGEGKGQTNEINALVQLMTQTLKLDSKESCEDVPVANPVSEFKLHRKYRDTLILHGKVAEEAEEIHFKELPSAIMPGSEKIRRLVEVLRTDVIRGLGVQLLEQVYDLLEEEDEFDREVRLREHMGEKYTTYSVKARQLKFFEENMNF
Chain of Mitogen-activated protein kinase kinase kinase 10 (Homo sapiens) (Q02779 whole entry, looked up): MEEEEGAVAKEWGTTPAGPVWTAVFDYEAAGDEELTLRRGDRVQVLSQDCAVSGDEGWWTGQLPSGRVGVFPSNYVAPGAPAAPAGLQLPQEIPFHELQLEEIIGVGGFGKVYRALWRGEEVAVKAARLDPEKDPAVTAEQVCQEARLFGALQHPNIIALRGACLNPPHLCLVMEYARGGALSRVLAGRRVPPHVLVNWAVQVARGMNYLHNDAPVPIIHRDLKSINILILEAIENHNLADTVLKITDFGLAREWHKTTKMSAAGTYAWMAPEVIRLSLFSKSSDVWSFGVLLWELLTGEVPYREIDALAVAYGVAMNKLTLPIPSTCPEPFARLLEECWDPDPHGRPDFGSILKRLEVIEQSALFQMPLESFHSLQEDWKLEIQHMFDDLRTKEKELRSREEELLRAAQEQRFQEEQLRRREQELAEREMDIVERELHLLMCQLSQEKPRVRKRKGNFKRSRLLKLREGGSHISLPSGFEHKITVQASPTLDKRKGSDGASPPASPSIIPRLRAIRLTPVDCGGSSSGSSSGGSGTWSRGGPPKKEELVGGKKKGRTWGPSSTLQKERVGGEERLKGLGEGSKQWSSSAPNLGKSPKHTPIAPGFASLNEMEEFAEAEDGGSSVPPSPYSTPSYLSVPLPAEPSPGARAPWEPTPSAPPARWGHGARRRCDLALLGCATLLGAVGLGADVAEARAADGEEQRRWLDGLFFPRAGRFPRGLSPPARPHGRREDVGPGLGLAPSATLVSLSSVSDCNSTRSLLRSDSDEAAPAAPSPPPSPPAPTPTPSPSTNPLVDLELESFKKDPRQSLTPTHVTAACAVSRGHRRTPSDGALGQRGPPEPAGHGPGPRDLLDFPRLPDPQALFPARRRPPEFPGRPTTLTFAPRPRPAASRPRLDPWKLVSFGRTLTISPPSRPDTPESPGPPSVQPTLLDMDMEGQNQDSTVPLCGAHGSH
Chain of Tyrosine-protein kinase HCK (Homo sapiens) (P08631 2-526 limits assumed): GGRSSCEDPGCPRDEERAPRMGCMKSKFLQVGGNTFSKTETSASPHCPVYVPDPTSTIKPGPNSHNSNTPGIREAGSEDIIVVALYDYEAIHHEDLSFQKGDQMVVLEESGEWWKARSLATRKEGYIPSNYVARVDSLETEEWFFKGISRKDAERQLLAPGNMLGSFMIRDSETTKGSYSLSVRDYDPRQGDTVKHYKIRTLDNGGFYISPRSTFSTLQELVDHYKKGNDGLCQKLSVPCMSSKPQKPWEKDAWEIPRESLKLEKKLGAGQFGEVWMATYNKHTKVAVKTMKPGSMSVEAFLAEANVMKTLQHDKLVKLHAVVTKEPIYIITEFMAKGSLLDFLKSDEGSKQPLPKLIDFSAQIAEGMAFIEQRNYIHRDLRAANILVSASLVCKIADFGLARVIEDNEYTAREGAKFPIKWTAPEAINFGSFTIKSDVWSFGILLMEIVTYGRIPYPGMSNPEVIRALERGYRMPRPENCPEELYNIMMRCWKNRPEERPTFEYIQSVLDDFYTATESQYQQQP
Chain of Tyrosine-protein kinase Fyn (Homo sapiens) (P06241 2-537 limits assumed): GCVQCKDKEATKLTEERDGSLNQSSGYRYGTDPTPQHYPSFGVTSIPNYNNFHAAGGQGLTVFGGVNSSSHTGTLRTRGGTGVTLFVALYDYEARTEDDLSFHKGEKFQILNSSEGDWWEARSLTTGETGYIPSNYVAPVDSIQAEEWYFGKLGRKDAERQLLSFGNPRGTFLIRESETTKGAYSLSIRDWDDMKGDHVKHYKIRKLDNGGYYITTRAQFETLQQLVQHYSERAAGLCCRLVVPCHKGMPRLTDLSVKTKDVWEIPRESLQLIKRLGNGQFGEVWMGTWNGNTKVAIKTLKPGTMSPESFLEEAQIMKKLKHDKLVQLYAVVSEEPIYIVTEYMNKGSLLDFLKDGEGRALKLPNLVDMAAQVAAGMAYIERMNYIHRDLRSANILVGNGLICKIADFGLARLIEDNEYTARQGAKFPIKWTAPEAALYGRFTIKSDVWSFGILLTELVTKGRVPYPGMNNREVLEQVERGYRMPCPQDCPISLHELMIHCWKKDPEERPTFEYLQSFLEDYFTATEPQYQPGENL
Chain of Testis-specific serine/threonine-protein kinase 2 (Homo sapiens) (Q96PF2 whole entry): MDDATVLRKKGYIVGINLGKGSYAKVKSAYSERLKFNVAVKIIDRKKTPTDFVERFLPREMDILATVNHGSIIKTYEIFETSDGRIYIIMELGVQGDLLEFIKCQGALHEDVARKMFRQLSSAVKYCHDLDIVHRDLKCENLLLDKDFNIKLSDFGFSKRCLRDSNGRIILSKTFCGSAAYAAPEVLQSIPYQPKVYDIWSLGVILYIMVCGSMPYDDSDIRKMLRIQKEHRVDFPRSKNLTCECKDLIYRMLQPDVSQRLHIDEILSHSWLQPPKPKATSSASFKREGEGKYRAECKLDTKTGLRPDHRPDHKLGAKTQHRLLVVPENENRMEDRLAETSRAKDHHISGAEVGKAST

CN1CCN(c2cnc3c(C4CCN(C(=O)c5ccc(OC(F)(F)F)cc5N)CC4)ncnc3c2)CC1 [BAY-885]
inactive: [1] 85% | [2] 115% | [3] 95% | [4] 98% | [5] 113% | [6] 129% | [7] 107% | [8] 117% | [9] 107% | [10] 95% | [11] 106% | [12] 118% | [13] 102% | [14] 113% | [15] 114% | [16] 98%
